{
  "source": "patent US8765920B2",
  "about": "“Tyrosine bioconjugation through aqueous Ene-like reactions” (priority 2009, dated 2014)",
  "assay": "Stability study of modified p-cresol under thermal conditions",
  "assay_type": "physicochemical",
  "settings": "120° C. for 1 h",
  "description": "Compound 4, the product of the reaction of p-cresol and PTAD, was subjected to both strongly acidic and basic conditions for 24 hours at room temperature or high temperature (120° C.) for 1 hr. […] These conditions are extremely harsh for a peptide or protein.\nThe relative stability of the C—N bond formed in the products was studied using p-cresol as a model phenol. As shown in Scheme 11, p-cresol was reacted with PTAD in tetrahydrofuran in the presence of sodium hydride to provide adduct in 75% isolated yield. Compound 8f was subjected to both strong acidic and basic conditions for 24 hours at room temperature or high temperature (120° C.) for 1 h.\nCompound 4 (4.00 mg, 0.0141 mmol) was heated at 120° C. for 1 h according to the literature. The recovery of 4 was 4.00 mg (quant.).\nCompound 23 (4.00 mg, 0.0141 mmol) was heated at 120° C. for 1 h according to literature. The recovery of 23 was 4.00 mg (quant.).",
  "data": [
    {"smiles": "Cc1ccc(O)c(-n2[nH]c(=O)n(-c3ccccc3)c2=O)c1", "note": "[Compound 4, 1-(2-hydroxy-5-methylphenyl)-4-phenyl-1,2,4-triazolidine-3,5-dione]", "values": [
      {"measurement": "decomposition by 1H NMR after heating", "result": "wasn't detected"}
    ]}
  ]
}
